# Experimental data taken from paper PMC10065799, “High-throughput profiling of sequence recognition by tyrosine kinases and SH2 domains using bacterial peptide display” (eLife, 2023).
# Key:
# [1] = target: c-Src kinase domain (Homo sapiens, UniProt P12931); assay: pTyr-Var library bacterial peptide display kinase screen (enrichment scores); format: biochemical;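 on c-Src hit?: Hit requires p below 0.05 and at least twofold variant vs reference change plus filters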
# [2] = system: Fyn kinase domain; assay: as above; format: biochemical, human;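 on Fyn hit?: Hit requires p below 0.05 and at least twofold variant vs reference change plus filters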
# [3] = system: Hck kinase domain; assay: as above; format: biochemical, human
# [4] = target: T1, c-Abl kinase domain (Mus musculus, UniProt P00520); assay: as above; format: biochemical;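 on c-Abl hit?: Hit requires p below 0.05 and at least twofold variant vs reference change plus filters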;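 on screen: log2 fold change in enrichment of variant over reference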
# T1 sequence (P00520 242-493 limits assumed): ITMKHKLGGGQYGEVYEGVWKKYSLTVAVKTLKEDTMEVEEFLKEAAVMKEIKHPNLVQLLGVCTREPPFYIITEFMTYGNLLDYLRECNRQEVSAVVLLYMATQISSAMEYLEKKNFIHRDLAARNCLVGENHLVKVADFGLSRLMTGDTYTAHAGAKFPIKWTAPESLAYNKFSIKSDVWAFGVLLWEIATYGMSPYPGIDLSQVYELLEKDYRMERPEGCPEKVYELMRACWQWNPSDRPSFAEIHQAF
# [5] = system: Jak2; assay: as above; format: biochemical, human
# [6] = system: AncSZ kinase domain; assay: as above; format: biochemical;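 on AncSZ hit?: Hit requires p below 0.05 and at least twofold variant vs reference change plus filters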
# [7] = system: Fer kinase domain; assay: as above; format: biochemical, mouse;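 on screen: log2 fold change in enrichment of variant over reference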
# [8] = system: Fes; assay: as above; format: biochemical
# [9] = system: FGFR1 kinase domain; assay: as above; format: biochemical, human
# [10] = system: FGFR3 kinase domain; assay: as above; format: biochemical, human
# [11] = system: EPHB1 kinase domain; assay: as above; format: biochemical, human;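 on screen: log2 fold change in enrichment of variant over reference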
# [12] = system: EPHB2 kinase domain; assay: as above; format: biochemical, human
# [13] = system: MERTK kinase domain; assay: as above; format: biochemical, human
# [14] = system: 4G10 Platinum pan-phosphotyrosine antibody; assay: Phosphorylated pTyr-Var library selection with biotinylated pan-phosphotyrosine antibody; format: binding, mouse; settings: enrichment score, sheet SH2-vs-peptide
# [15] = target: c-Src SH2 domain (Homo sapiens, UniProt P12931); assay: pTyr-Var library SH2 domain screen with SH2-dynabeads (enrichment scores); settings: sheet c-Src
# [16] = system: SHP2 C-SH2 domain; assay: as above
# [17] = system: Grb2 SH2 domain; assay: as above
# [18] = mean of log2 of enrichment over R1-R4
# [19] = pTyr-Var library, enrichment score, replicate 1
# [20] = pTyr-Var library, enrichment score, replicate 3
# [21] = pTyr-Var library, enrichment score, replicate 4
# [22] = variant versus reference peptide
# [23] = variant versus reference peptide, significant hit TRUE/FALSE
# [24] = mean of log2(variant) minus mean of log2(reference)
# [25] = mean of log2 enrichment of variant peptide, n = 5
# [26] = pTyr-Var library, variant peptide enrichment, mean of n = 5
# [27] = mean of log2 enrichment of variant peptide, n = 4
# [28] = pTyr-Var library, variant peptide enrichment, mean of n = 4
sequence,measurement,setting,value
LHVGFYESDVM [A2M_Y708_R704H],c-Src mean of log2(enrichment),[1]; [18],-0.6428
same,c-Src enrich. R1,[1]; [19],0.8102
same,c-Src enrich. R3,[1]; [20],0.4328
same,c-Src enrich. R4,[1]; [21],0.9633
same,c-Src difference (mean log2 variant - mean log2 reference),[1]; [22],-1.034
same,c-Src hit?,[1]; [23],FALSE
same,Fyn mean of log2(enrichment),[2]; [18],-0.6247
same,Fyn enrich. R1,[2]; [19],1.119
same,Fyn enrich. R3,[2]; [20],0.683
same,Fyn enrich. R4,[2]; [21],0.4956
same,Fyn difference (mean log2 variant - mean log2 reference),[2]; [22],-0.4761
same,Fyn hit?,[2]; [23],FALSE
same,Hck enrich. R1,[3]; [19],0.9181
same,Hck enrich. R3,[3]; [20],0.8034
same,Hck enrich. R4,[3]; [21],0.2649
same,Hck hit?,[3]; [23],FALSE
same,Screen,"[4]; fig5-data2, sheet ""Abl"", Screen for the variant/reference peptide pair, pTyr-Var library",-1.318
same,c-Abl mean of log2(enrichment),[4]; [18],-0.4279
same,c-Abl enrich. R1,[4]; [19],0.51
same,c-Abl enrich. R3,[4]; [20],0.9195
same,c-Abl enrich. R4,[4]; [21],0.7727
same,c-Abl hit?,[4]; [23],FALSE
same,Jak2 mean of log2(enrichment),[5]; mean of log2 of enrichment over R1-R3,0.3892
same,Jak2 enrich. R1,[5]; [19],1.336
same,Jak2 enrich. R3,[5]; [20],1.016
same,Jak2 difference (mean log2 variant - mean log2 reference),[5]; [22],-0.5933
same,Jak2 hit?,[5]; [23],FALSE
same,AncSZ mean of log2(enrichment),[6]; mean of log2 of enrichment over R1-R5,0.1983
same,AncSZ enrich. R1,[6]; [19],0.795
same,AncSZ enrich. R3,[6]; [20],1.048
same,AncSZ enrich. R4,[6]; [21],1.095
same,AncSZ enrich. R5,"[6]; pTyr-Var library, enrichment score, replicate 5",1.306
same,AncSZ difference (mean log2 variant - mean log2 reference),[6]; [22],-1.317
same,AncSZ hit?,[6]; [23],FALSE
same,Fer mean of log2(enrichment),[7]; [18],0.8907
same,Fer enrich. R1,[7]; [19],2.223
same,Fer enrich. R3,[7]; [20],2.063
same,Fer enrich. R4,[7]; [21],1.22
same,Screen,"[7]; sheet ""Fer"", value of the variant peptide against its reference peptide in the pTyr-Var library screen with Fer",0.2498
same,Fer difference (mean log2 variant - mean log2 reference),[7]; [22],0.2498
same,Fer hit?,[7]; [23],FALSE
same,Fes mean of log2(enrichment),[8]; mean of log2 of enrichment over R1-R6,0.6236
same,Fes difference (mean log2 variant - mean log2 reference),[8]; [22],-0.8632
same,difference,[9]; [24],-0.559
same,mean of log2(variant),[9]; [25],-0.3446
same,var. mean,[9]; [26],0.8886
same,difference,[10]; [24],-1.255
same,mean of log2(variant),[10]; [25],0.01497
same,var. mean,[10]; [26],1.21
same,difference,[11]; [24],-0.4797
same,mean of log2(variant),[11]; [27],0.4103
same,var. mean,[11]; [28],1.406
same,Screen,"[11]; sheet EPHB1, effect of the variant peptide relative to its reference peptide in the pTyr-Var library screen (enrichment scores)",-0.4797
same,difference,[12]; [24],0.5535
same,mean of log2(variant),[12]; [27],0.1669
same,var. mean,[12]; [28],1.142
same,difference,[13]; [24],-1.201
same,mean of log2(variant),[13]; [27],0.1586
same,var. mean,[13]; [28],1.154
same,4G10 (mean),[14],1.221
same,difference,[15]; [24],0.05278
same,mean of log2(variant),"[15]; mean of log2 enrichment of variant peptide, R1-R3",2.054
same,var. mean,"[15]; variant peptide, mean of R1-R3",4.231
same,difference,"[16]; SHP2-C SH2, mean of log2(variant) minus mean of log2(reference)",-0.5777
same,mean of log2(variant),"[16]; SHP2-C SH2, mean of log2 enrichment of variant, R1-R3",-0.5659
same,hit?,"[16]; SHP2-C SH2, variant versus reference significant hit call",FALSE
same,var. mean,"[16]; variant peptide enrichment score, SHP2-C SH2, mean of R1-R3",0.7213
same,difference,"[17]; Grb2 SH2, mean of log2(variant) minus mean of log2(reference)",0.0213
same,mean of log2(variant),"[17]; Grb2 SH2, mean of log2 enrichment of variant, R1-R3",-0.08185
same,hit?,"[17]; Grb2 SH2, variant versus reference significant hit call",FALSE
same,var. mean,"[17]; variant peptide enrichment score, Grb2 SH2, mean of R1-R3",0.9505
